{"source": "patent US8415321B2", "about": "“Nucleoside derivatives for treatment of Caliciviridae infections, including Norovirus infections” (priority 2008, dated 2013)", "test_system": "Norwalk GI.1 replicon", "test": "Norwalk GI.1 replicon assay (in vitro anti-viral activity)", "type": "cell-based", "details": "Norovirus", "excerpt": "The Norwalk GI.1 strain (Chang, K. O., et al. (2006) Virology 353:463-473), the GII-4 strain replicon, as well other Norovirus replicons can be used in assays to determine the in vitro antiviral activity of the compounds described herein, or other compounds or compound libraries. In some embodiments, the replicon systems are subgenomic and therefore allow evaluation of small molecule inhibitors of non-structural proteins. This can provide the same benefits to Norovirus drug discovery that Hepatitis C replicons contributed to the discovery of therapeutics useful for treatment of that virus (Stuyver, L. J., et al. (2006) Antimicrob. Agents Chemother. 47:244-254).", "data": [{"compound": "CC1(O)C(O)[C@@H](CO)O[C@H]1n1ccc(N)nc1=O", "note": "(some centres unmarked) [2′-C-methyl-cytosine]", "values": [{"measurement": "EC50", "value": 2.1, "unit": "µM"}, {"measurement": "EC90", "value": 8.9, "unit": "µM"}]}]}
